Measurements from patent US20050137259A1, “Insulin secretion potentiator” (Use- Techno Corporation, priority 2003, published 2005).

Assays:
Format in all cases: in vivo, human
[1] = system: borderline diabetic patients; assay: Glucose tolerance test (75 g glucose), blood insulin level (IRI), double-blind crossover; settings: 10 mg oral, 31 borderline diabetic patients, p<0.05
Description: A glucose tolerance test was performed after administration of corosolic acid or a placebo, in a double-blind crossover manner, and the blood insulin level (IRI: immunoreactive insulin) was assayed.
(§1) First, 31 borderline diabetic patients as test subjects were orally administered corosolic acid (10 mg, >99% purity) or a placebo, and blood was sampled immediately thereafter with the blood insulin level at that time designated as the value at 0 minutes. Immediately after blood sampling, 75 g of glucose was orally administered to each test subject to start a glucose tolerance test, and blood was sampled after periods of 30 minutes, 60 minutes, 90 minutes, 120 minutes and 180 minutes for measurement of the blood insulin level.
FIG. 1 is a graph showing the blood insulin levels during the glucose tolerance test. The horizontal axis represents time (min) after start of the glucose tolerance test, and the vertical axis represents IRI (μU/mL). In the graph, (a) is a case with administration of corosolic acid and (b) is a case with administration of the placebo.

[2] = system: borderline diabetic patients; assay: Blood glucose and blood insulin levels after administration in the absence of glucose load (fasted), crossover double-blind; settings: single 10 mg dose; for blood glucose level (G) / blood insulin level (I): fasted, no glucose load; for blood insulin level (I): unit assumed
Description: Three borderline diabetic patients (person, person and person) were instructed to fast from 8:00 pm (to ensure absence of glucose load), and were administered a placebo once or the test agent (corosolic acid) once at 9:00 am on the following day, after which the changes in blood glucose level and blood insulin level were measured. The participants were given absolutely no information regarding placebo or test agent (crossover, double-blind). The corosolic acid was administered in a single 10 mg dose, and each test was conducted twice.
FIG. 3 is a graph showing changes in blood glucose levels with administration of corosolic acid and a placebo in the absence of a glucose load, and FIG. 4 is a graph showing changes in blood insulin levels with administration of corosolic acid and a placebo in the absence of a glucose load.

[3] = system: borderline diabetic patients; assay: Glucose tolerance test (75 g glucose), blood glucose level (plasma glucose concentration), double-blind crossover; settings: 10 mg oral, 35 borderline diabetic patients, p<0.05
Description: The following test was conducted to confirm that corosolic acid has a hypoglycemic effect. A glucose tolerance test was performed after administration of corosolic acid, banaba extract or a placebo, in a double-blind crossover manner, and the blood glucose level (plasma glucose concentration) was assayed.
as §1, with “35” for “31”, “purity), banaba extract (trade name: COROSOLIA M, product of Use Techno Corporation; administered at 10 mg of corosolic acid)” for “purity)”, “glucose” for “insulin”
FIG. 2 is a graph showing blood glucose levels during the glucose tolerance test. The horizontal axis represents time (min) after start of the glucose tolerance test, and the vertical axis represents plasma glucose concentration (mg/dL). In the graph, (c) is a case with administration of corosolic acid, (d) is a case with administration of banaba leaf extract and (e) is a case with administration of the placebo.

[4] = 120 minutes after start of glucose tolerance test

How did the “blood insulin level compared to placebo” value ([1]; 30 minutes after start of glucose tolerance test) turn out when C[C@H]1[C@H](C)CC[C@]2(C(=O)O)CC[C@]3(C)C(=CC[C@@H]4[C@@]5(C)C[C@@H](O)[C@H](O)C(C)(C)[C@@H]5CC[C@]43C)[C@H]12 [corosolic acid] was run?
Its value is “significant increase”.

What about the “blood insulin level compared to placebo” value [1, 4] of the same compound?
The value was “significant drop”.

And the “blood glucose levels, corosolic acid versus placebo” value ([2]; absence of glucose load, FIG. 3)?
Its value is “no significant difference”.

And the “blood insulin levels, corosolic acid versus placebo” value ([2]; absence of glucose load, FIG. 4)?
Its value is “no significant difference”.

And the blood glucose level (G) ([2]; participant A, after 0 min)?
Its blood glucose level (G) is 110 mg/dL.

And the blood insulin level (I) ([2]; participant A, after 0 min)?
The blood insulin level (I) was 9 µU/mL.

What about the blood glucose level (G) ([2]; participant A, after 30 min) of the same compound?
The blood glucose level (G) was 104 mg/dL.

What about the blood insulin level (I) ([2]; participant A, after 30 min) of the same compound?
The blood insulin level (I) was 6.9 µU/mL.

What about the blood glucose level (G) ([2]; participant A, after 60 min) of the same compound?
Its blood glucose level (G) is 107 mg/dL.

And the blood insulin level (I) ([2]; participant A, after 60 min)?
Its blood insulin level (I) is 6.6 µU/mL.

And the blood glucose level (G) ([2]; participant A, after 90 min)?
Its blood glucose level (G) is 104 mg/dL.

And the blood insulin level (I) ([2]; participant A, after 90 min)?
The blood insulin level (I) was 5.9 µU/mL.

What about the blood glucose level (G) ([2]; participant A, after 120 min) of the same compound?
The blood glucose level (G) was 104 mg/dL.

What about the blood insulin level (I) ([2]; participant A, after 120 min) of the same compound?
Its blood insulin level (I) is 6.6 µU/mL.

What about the blood glucose level (G) ([2]; participant A, after 180 min) of the same compound?
The blood glucose level (G) was 102 mg/dL.

And the blood insulin level (I) ([2]; participant A, after 180 min)?
Its blood insulin level (I) is 5.1 µU/mL.

And the blood glucose level (G) ([2]; participant B, after 0 min)?
The blood glucose level (G) was 144 mg/dL.

And the blood insulin level (I) ([2]; participant B, after 0 min)?
The blood insulin level (I) was 2.5 µU/mL.

What about the blood glucose level (G) ([2]; participant B, after 30 min) of the same compound?
The blood glucose level (G) was 143 mg/dL.

What about the blood insulin level (I) ([2]; participant B, after 30 min) of the same compound?
Its blood insulin level (I) is 2.6 µU/mL.

And the blood glucose level (G) ([2]; participant B, after 60 min)?
Its blood glucose level (G) is 147 mg/dL.

And the blood insulin level (I) ([2]; participant B, after 60 min)?
The blood insulin level (I) was 3 µU/mL.

And the blood glucose level (G) ([2]; participant B, after 90 min)?
The blood glucose level (G) was 149 mg/dL.

What about the blood insulin level (I) ([2]; participant B, after 90 min) of the same compound?
Its blood insulin level (I) is 2 µU/mL.

And the blood glucose level (G) ([2]; participant B, after 120 min)?
Its blood glucose level (G) is 150 mg/dL.

What about the blood insulin level (I) ([2]; participant B, after 120 min) of the same compound?
Its blood insulin level (I) is 3.4 µU/mL.

And the blood glucose level (G) ([2]; participant B, after 180 min)?
The blood glucose level (G) was 146 mg/dL.

And the blood insulin level (I) ([2]; participant B, after 180 min)?
Its blood insulin level (I) is 2.4 µU/mL.

What about the blood glucose level (G) ([2]; participant C, after 0 min) of the same compound?
The blood glucose level (G) was 90 mg/dL.

And the blood insulin level (I) ([2]; participant C, after 0 min)?
Its blood insulin level (I) is 4.5 µU/mL.

What about the blood glucose level (G) ([2]; participant C, after 30 min) of the same compound?
Its blood glucose level (G) is 90 mg/dL.

And the blood insulin level (I) ([2]; participant C, after 30 min)?
The blood insulin level (I) was 4.1 µU/mL.

What about the blood glucose level (G) ([2]; participant C, after 60 min) of the same compound?
Its blood glucose level (G) is 88 mg/dL.

And the blood insulin level (I) ([2]; participant C, after 60 min)?
The blood insulin level (I) was 3.9 µU/mL.

What about the blood glucose level (G) ([2]; participant C, after 90 min) of the same compound?
Its blood glucose level (G) is 86 mg/dL.

And the blood insulin level (I) ([2]; participant C, after 90 min)?
The blood insulin level (I) was 4.9 µU/mL.

And the blood glucose level (G) ([2]; participant C, after 120 min)?
The blood glucose level (G) was 86 mg/dL.

And the blood insulin level (I) ([2]; participant C, after 120 min)?
The blood insulin level (I) was 4 µU/mL.

What about the blood glucose level (G) ([2]; participant C, after 180 min) of the same compound?
The blood glucose level (G) was 81 mg/dL.

What about the blood insulin level (I) ([2]; participant C, after 180 min) of the same compound?
The blood insulin level (I) was 4 µU/mL.

What about the “blood glucose level compared to placebo” value ([3]; 90 minutes after start of glucose tolerance test) of the same compound?
The value was “significant decrease”.

What about the “blood glucose level compared to placebo” value [3, 4] of the same compound?
The value was “significant decrease”.
